Experimental data reported in US8314239B2, “Modulators of cystic fibrosis transmembrane conductance regulator” (priority 2008, dated 2012).
pEC50: −log10 of the molar value. Where a name gives a salt, the structure may show the parent alone.

Molecular target: T1, ΔF508-CFTR (Homo sapiens, UniProt P13569, DEL508-508)
T1 construct: expressed in transfected cells
Assay: Membrane potential optical assay for ΔF508-CFTR potentiation (double-addition HTS, FLIPR III)
Format: cell-based
Conditions: for Emax: 100% efficacy is the maximum response obtained with 4-methyl-2-(5-phenyl-1H-pyrazol-3-yl)phenol
Text: Membrane Potential Optical Methods for Assaying ΔF508-CFTR Modulation Properties of Compounds
The assay utilizes fluorescent voltage sensing dyes to measure changes in membrane potential using a fluorescent plate reader (e.g., FLIPR III, Molecular Devices, Inc.) as a readout for increase in functional ΔF508-CFTR in NIH 3T3 cells. The driving force for the response is the creation of a chloride ion gradient in conjunction with channel activation by a single liquid addition step after the cells have previously been treated with compounds and subsequently loaded with a voltage sensing dye.
To identify potentiators of ΔF508-CFTR, a double-addition HTS assay format was developed. This HTS assay utilizes fluorescent voltage sensing dyes to measure changes in membrane potential on the FLIPR III as a measurement for increase in gating (conductance) of ΔF508 CFTR in temperature-corrected ΔF508 CFTR NIH 3T3 cells. The driving force for the response is a Cl^− ion gradient in conjunction with channel activation with forskolin in a single liquid addition step using a fluorescent plate reader such as FLIPR III after the cells have previously been treated with potentiator compounds (or DMSO vehicle control) and subsequently loaded with a redistribution dye.
Bath Solution #1: (in mM) NaCl 160, KCl 4.5, CaCl2 2, MgCl2 1, HEPES 10, pH 7.4 with NaOH.
Chloride-Free Bath Solution: Chloride Salts in Bath Solution #1 are Substituted with Gluconate Salts.
NIH3T3 mouse fibroblasts stably expressing ΔF508-CFTR are used for optical measurements of membrane potential. The cells are maintained at 37° C. in 5% CO2 and 90% humidity in Dulbecco's modified Eagle's medium supplemented with 2 mM glutamine, 10% fetal bovine serum, 1×NEAA, β-ME, 1× pen/strep, and 25 mM HEPES in 175 cm^2 culture flasks. For all optical assays, the cells were seeded at ˜20,000/well in 384-well matrigel-coated plates and cultured for 2 hrs at 37° C. before culturing at 27° C. for 24 hrs. for the potentiator assay. For the correction assays, the cells are cultured at 27° C. or 37° C. with and without compounds for 16-24 hours. Electrophysiological Assays for assaying ΔF508-CFTR modulation properties of compounds.
Compounds of the invention are useful as modulators of ATP binding cassette transporters. Examples of activities and efficacies of the compounds of Formula (I) are shown below in Table 3. The compound activity is illustrated with “+++” if activity was measured to be less than 2.0 μM, “++” if activity was measured to be from 2 μM to 5.0 μM, “+” if activity was measured to be greater than 5.0 μM, and “−” if no data was available. The efficacy is illustrated with “+++” if efficacy was calculated to be greater than 100%, “++” if efficacy was calculated to be from 100% to 25%, “+” if efficacy was calculated to be less than 25%, and “−” if no data was available. It should be noted that 100% efficacy is the maximum response obtained with 4-methyl-2-(5-phenyl-1H-pyrazol-3-yl)phenol.

T1 sequence (P13569 with tags, fused parts or gaps DEL508-508): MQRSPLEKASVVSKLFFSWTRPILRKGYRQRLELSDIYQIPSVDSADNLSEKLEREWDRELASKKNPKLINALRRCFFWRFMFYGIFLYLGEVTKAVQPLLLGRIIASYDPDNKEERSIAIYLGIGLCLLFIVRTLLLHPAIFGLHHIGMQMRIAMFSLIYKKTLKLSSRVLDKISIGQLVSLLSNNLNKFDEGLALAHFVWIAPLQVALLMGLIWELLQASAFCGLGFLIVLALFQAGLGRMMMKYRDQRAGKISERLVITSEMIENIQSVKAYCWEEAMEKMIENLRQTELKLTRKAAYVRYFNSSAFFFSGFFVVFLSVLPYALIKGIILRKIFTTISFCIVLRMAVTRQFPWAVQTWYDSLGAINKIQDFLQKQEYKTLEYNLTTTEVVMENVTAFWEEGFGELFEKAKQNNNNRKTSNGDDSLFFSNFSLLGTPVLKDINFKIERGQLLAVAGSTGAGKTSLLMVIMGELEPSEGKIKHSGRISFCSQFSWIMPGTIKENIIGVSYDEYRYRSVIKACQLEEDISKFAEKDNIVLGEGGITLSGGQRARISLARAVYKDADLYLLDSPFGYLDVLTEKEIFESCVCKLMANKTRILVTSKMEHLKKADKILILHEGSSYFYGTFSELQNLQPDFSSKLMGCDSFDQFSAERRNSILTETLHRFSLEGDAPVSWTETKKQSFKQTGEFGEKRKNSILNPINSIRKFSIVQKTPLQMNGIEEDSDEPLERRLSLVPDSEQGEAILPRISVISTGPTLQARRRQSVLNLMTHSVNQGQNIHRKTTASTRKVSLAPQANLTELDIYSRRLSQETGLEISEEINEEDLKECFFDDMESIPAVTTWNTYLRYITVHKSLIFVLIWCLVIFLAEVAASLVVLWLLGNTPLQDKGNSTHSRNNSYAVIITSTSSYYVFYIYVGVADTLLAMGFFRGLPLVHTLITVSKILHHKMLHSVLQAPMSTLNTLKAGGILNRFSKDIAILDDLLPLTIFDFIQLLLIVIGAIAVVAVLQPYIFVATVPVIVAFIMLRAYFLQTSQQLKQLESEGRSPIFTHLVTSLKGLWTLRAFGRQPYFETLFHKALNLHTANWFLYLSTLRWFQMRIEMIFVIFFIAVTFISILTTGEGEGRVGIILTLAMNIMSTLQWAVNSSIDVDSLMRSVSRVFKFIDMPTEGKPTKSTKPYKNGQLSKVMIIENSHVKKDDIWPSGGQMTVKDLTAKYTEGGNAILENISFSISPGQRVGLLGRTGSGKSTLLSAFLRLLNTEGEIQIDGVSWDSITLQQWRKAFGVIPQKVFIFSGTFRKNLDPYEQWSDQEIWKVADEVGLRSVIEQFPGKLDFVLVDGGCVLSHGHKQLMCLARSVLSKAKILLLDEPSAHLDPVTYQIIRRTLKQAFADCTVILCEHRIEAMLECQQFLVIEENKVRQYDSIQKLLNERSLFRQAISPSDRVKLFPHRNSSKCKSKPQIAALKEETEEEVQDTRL

Cc1cccc2[nH]cc(C(=O)Nc3ccc(N4C5CCC4CC5)nc3C(F)(F)F)c(=O)c12 [Compound 3]
pEC50: > 5.70 | Emax: 25 to 100%

O=C(Nc1ccc(N2C3CCC2CC3)nc1C(F)(F)F)c1c[nH]c2cccc(C(F)(F)F)c2c1=O [Compound 2, N-(6-(7-azabicyclo[2.2.1]heptan-7-yl)-2-(trifluoromethyl)pyridin-3-yl)-4-oxo-5-(trifluoromethyl)-1,4-dihydroquinoline-3-carboxamide]
pEC50: > 5.70 | Emax: 25 to 100%

Cc1cc(N2C3CCC2CC3)ncc1NC(=O)c1c[nH]c2cccc(C)c2c1=O [Compound 1, N-(6-(7-azabicyclo[2.2.1]heptan-7-yl)-4-methylpyridin-3-yl)-5-methyl-4-oxo-1,4-dihydroquinoline-3-carboxamide hydrochloride]
pEC50: > 5.70 | Emax: 25 to 100%
